Experimental data from patent EP4205737A1, “COMPOSITION FOR PREVENTION, AMELIORATION, OR TREATMENT OF INFLAMMATORY DISEASES OR IMMUNE DISEASES COMPRISING GANCAONIN N AS ACTIVE INGREDIENT” (UNIVERSITY-INDUSTRY COOPERATION GROUP OF KYUNG HEE …, priority 2020, dated 2022).

Legend:
[1] = test system: TNF-α; experiment: Western blotting of TNF-α protein in LPS-stimulated A549 cells; assay type: cell-based, human; settings: LPS 5 µg/mL, 5 to 40 µM (FIG. 4A)
Experimental: (§1) RAW264.7 cells and A549 cells were dispensed into 6-well plates (1 × 10^6 cells/well) and cultured under conditions of 37°C and 5% CO2. After the culturing, the Raw 264.7 cells were treated with 1 µg/mL of lipopolysaccharide (LPS) and the A549 cells were treated with 5 µg/mL of lipopolysaccharide (LPS) and with 5 µM to 40 µM of gancaonin N, and the cells were cultured for 24 hours or 6 hours. Then, the cells were lysed using a lysis buffer. In addition, the left lung extracted from each mouse was lysed using RIPA buffer. SDS-PAGE electrophoresis was performed on the cell and tissue lysates to separate proteins by side, and 5% bovine serum albumin was used for culturing and for blocking antibodies against PGE2 (1:500), IL-1β (1:500), IL-6 (1:500), TNF-α (1:500), i-NOS (1:500), COX-2 (1:1000), P-ERK1/2 (1:1000), ERK1/2 (1:3000), P-p38 (1:1000), p38 (1:3000), NF-κB p65 (1:1000), Lamin B1 (1:1000), and β-actin (1: 5,000).
For the pro-inflammatory cytokines whose mRNA expression inhibition was confirmed as above, the expression level of the protein encoded by the mRNA was further checked. To determine the protein expression level, A549 cells were treated with LPS and gancaonin N as described in Examples 1 to 8, and the protein expression levels were checked.

[2] = test system: COX-2; experiment: Western blotting of COX-2 in LPS-stimulated RAW264.7 cells; assay type: cell-based, murine; settings: LPS 1 µg/mL, 5 to 40 µM, as treatment concentration increased (FIG. 2D)
Experimental: as §1
To investigate the anti-inflammatory effect of gancaonin N, the inventors treated Raw264.7 cells with LPS and Gancaonin N, as described in Examples 1 to 6, and evaluated the expression level of inflammation-inducing factors. Thus, the inhibitory effect of gancaonin N on inflammation-related factors was specifically confirmed.

[3] = test system: LPS-induced acute lung injury (ALI) mouse model; experiment: Bronchoalveolar lavage fluid analysis (inflammatory cell infiltration), LPS-induced acute lung injury mouse model; assay type: in vivo, BALB/c mice; settings: mice, 10 mg/kg or 30 mg/kg intraperitoneally one hour before intratracheal LPS
Experimental: 25 6-week-old female BALB/c mice having a weight of 18g to 20 g were purchased from BioLink (DBL CO., Eumseong, Chungcheongbuk-do, Korea), and reared in the animal laboratory of KyungHee University. To establish an LPS-induced acute lung injury model, all the mice were divided into five groups each group of which consisted of 5 mice, and the five groups were referred to as control, vehicle (only LPS treatment), gancaonin N (10 mg/kg), gancaonin N (30 mg/kg), and dexamethasone (3 mg/kg). Gancaonin N was intraperitoneally injected at a dose of 10 mg/kg or 30 mg/kg, and dexamethasone was intraperitoneally injected at a dose of 3 mg/kg as a positive control group. In addition, the control and vehicle groups were intraperitoneally injected with 4% DMSO in which gancaonin N was dissolved. […]
Bronchoalveolar lavage fluid (BALF) was obtained after anesthetizing each mouse with intranasal isoflurane. […] The cells were stained with the Diff-Quik kit (Sysmex, Kobe, Japan), observed under a microscope, and sorted, and then the total cells and neutrophils were counted.
The mouse models prepared as described in Examples 1 to 3 were treated with LPS to induce acute lung injury (ALI), and then the anti-inflammatory effect of gancaonin N was specifically evaluated for the mice of five groups (control, vehicle (only LPS), gancaonin N (10 mg/kg), gancaonin N (30 mg/kg), and dexamethasone (3 mg/kg)), […]

[4] = test system: IL-1β; experiment: Real-time PCR of IL-1β mRNA in LPS-stimulated A549 cells; assay type: cell-based, human; settings: LPS 5 ug/mL, 5 to 40 µM, 24 hours, effect proportional to amount (FIG. 3B)
Experimental: A549 cells were dispensed into 6-well plates (1 × 10^6 cells/well) and cultured under conditions of 37°C and 5% CO2. After the culturing, the A549 cells were treated with of 5 ug/mL of lipopolysaccharide (LPS) and with 5 µM to 40 µM of gancaonin N, and the cells were then cultured for 24 hours. Afterwards, total RNA was isolated from each treated cell using Hybrid-RTM (GeneAll, South Korea). The isolated total RNA (500 ng) was converted to cDNA sequentially through incubation at 55°C for 60 minutes using oligo (dT) and incubation at 85°C for 5 minutes, and the cDNA was stored at 4°C until being used. In addition, real-time quantitative PCR was performed using Universal SYBR Green Master Mix (Applied Biosystems, USA), and the cDNA was amplified under conditions described below. 95°C for 15 minutes, then 95°C for 30 seconds, 59°C for 30 seconds, and 72°C for 30 seconds were repeated 40 times. […]
To investigate the inhibitory effect of gancaonin on the expression levels of pro-inflammatory cytokines, the mRNA expression levels of tumor necrosis factor-α (hereinafter referred to as TNF-α), interleukin-1 beta (hereinafter referred to as IL-1β), and interleukin 6 (hereinafter referred to as IL-6) which are all known as pro-inflammatory cytokines were measured. […]

In the case of COc1ccc(-c2coc3cc(O)c(CC=C(C)C)c(O)c3c2=O)c(O)c1 [gancaonin N, 5,7-dihydroxy-3-(2-hydroxy-4-methoxyphenyl)-6-(3-methylbut-2-enyl)chromen-4-one], the “protein expression of TNF-α” value [1] is reported as “significantly inhibited”, the “expression level of protein of COX-2” value [2] is reported as “significantly decreased” and the “cell count in bronchoalveolar lavage fluid (BALF)” value ([3]; sacrificed 12 hours later (FIG. 6B)) is reported as “significantly reduced”. For the same compound, the “neutrophil count in bronchoalveolar lavage fluid (BALF)” value ([3]; sacrificed 12 hours later (FIG. 6C)) was “significantly reduced” and the “mRNA expression of IL-1β” value [4] was “significantly inhibited”.
